Laboratory results reported in paper PMC9400227, “αvβ3 integrin-specific exosomes engineered with cyclopeptide for targeted delivery of triptolide against malignant melanoma” (Journal of Nanobiotechnology, 2022).
≈ marks a conversion by molar mass, not a printed value.

Assays:
[1] = mouse, in vivo
Method: Briefly, the mouse bodyweight of all groups was recorded throughout the treatment period. To evaluate systemic safety, after the termination of treatment, the tissues of the heart, liver, spleen, lung, and kidney were collected to calculate organ indexes [mass of the organ (mg)/bodyweight (g)] and to stain for H&E. In addition, orbital blood was sampled for a routine blood test, hepatic function test and renal function test, including RBC, WBC, ALT, and Cr.

A375 cells [2] = assay: Transwell invasion assay; format: cell-based, human; settings: A375 cells pretreated 6 h, Transwell with Matrigel 24 h
Method: Then, the differently treated cells were incubated in the apical Transwell insert (24-well plant covered with Matrigel polycarbonate membranes, pore size 8 μm). Meanwhile, 800 μL of DMEM with 10% FBS used for cell chemotaxis was added to the basolateral champers. After incubation for 24 h, the cells on the top side of the apical chamber were wiped, and then the migrated cells were fixed with 4% paraformaldehyde and stained with 0.1% crystal violet. After that, five random fields under an inverted microscope were visualized, and the migrated cells were counted by ImageJ software.

[3] = In vivo antitumor efficacy in A375 xenograft tumor model; settings: tumor-bearing mice, Kaplan–Meier; control 25.5 days
A375 cells [4] = assay: Cell apoptosis assay (Annexin V-APC/7-AAD flow cytometry); settings: 24 h
Method: Then, the cells were trypsinized by pancreatic enzymes without DMSO and resuspended in 500 μL 1× Binding Buffer. The cell suspension was stationarily cultured at room temperature for 15 min in the dark after adding 7-AAD and Annexin V-APC. Subsequently, cell apoptosis and necrosis were detected with a flow cytometer.

[5] = Plasma pharmacokinetics in tumor-bearing mice; settings: nude, mouse, in vivo, iv, 600 ug/kg
Method: The TP concentrations in blood, heart, liver, spleen, lung, kidney, and tumor tissues were also quantified over time. […] The preparations were injected intravenously at drug-equivalent doses of 600 μg/kg TP. After injection, blood was sampled from the orbital vein at 5 min, 10 min, 15 min, 30 min, 1 h, 2 h, 4 h, 6 h, and 24 h. In addition, heart, liver, spleen, lung, kidney, and tumor tissues were collected at 5 min, 30 min, 1 h, 2 h, 4 h, 6 h, and 24 h. Nine mice were sacrificed at each time point (n = 3), whereas at 10 min and 15 min, the mice were only taken for blood and were not killed. The TP concentration in plasma and tissue homogenate was analyzed with UHPLC-MS/MS.
TP concentrations in cells, plasma, primary organs, and tumors were analyzed using UHPLC-MS/MS (Thermo Fisher Scientific, CA, USA). The separation was performed on an ACQUITY UPLCTM BEH C18 column (2.1 × 100 mm, i.d., 1.7 μm). The column temperature was maintained at 40 °C. The mobile phases were 1% acetic acid aqueous solution (A) and methanol (B). Isocratic elution with 40% A and 60% B was adopted at a flow rate of […]. The temperature and flow rate of dry gas (N2) were 350 °C and 8 L/min, respectively. The pressure of the nebulizer gas (N2) was 40 psi. The capillary voltage was […]. The positive multiple reaction monitoring (MRM) mode was adopted to determine TP and carbamazepine (internal standard, IS). The collision energy was 33 eV for both TP and IS. The precursor-to-product transitions were m/z 361.1 → 105.2 for TP and m/z 237.1 → 194.0 for IS.

A375 cells [6] = assay: CCK-8 cytotoxicity assay; format: cell-based; settings: Homo sapiens, A-375, 24 h
Method: A375 cells were incubated with different concentrations of TP for 24 h. After that, 10 μL of CCK-8 was added to the treated cells and incubated for another 20 min. The absorbance was detected using a microplate reader.

A375 cells [7] = assay: Cell cycle assay (PI staining); format: cell-based, human; settings: 24 h
Method: The cell cycle assay was carried out to explore the correlation between mitosis and cytotoxicity. […] The treated cells were then fixed with 70% ethanol for 12 h, washed with PBS 3 times, and stained with propidium iodide/RNase A for 30 min. After that, the red fluorescence of differently treated cells was recorded at 488 nm, and the DNA content of cells was also analyzed.

malignant melanoma = system: malignant melanoma; parameters: method as in PMID 31564801; settings: chemotherapeutic drug for MM; cited from earlier work

CC(C)[C@]12O[C@H]1[C@@H]1O[C@]13[C@]1(O[C@H]1C[C@H]1C4=C(CC[C@@]13C)C(=O)OC4)[C@@H]2O [TP, triptolide]
ALT (alanine aminotransferase) [1]: 76.25 ± 4.03 U/L
Cr (creatinine) [1]: 27.76 ± 1.52 µmol/L
H&E staining of normal tissues [1]: heart, liver, and kidney were damaged
RBC (red blood cell) [1]: 8.11 ± 0.65 × 10^12/L
WBC (white blood cell) [1]: 6.73 ± 0.51 × 10^9/L
mice bodyweight during the treatment period [1]: suffered a bodyweight loss
organ indexes versus control [1]: significantly lower than those of the control mice
invasion inhibition rate (A375 cells [2]): 45.54 ± 6.35%
mean survival time [3]: 29.5 days
apoptosis and necrosis (mortal cells) (A375 cells [4]): 22.10 ± 1.66%
AUC(0-inf) [5]: 1400 ± 81.4 ng·h/mL
Cmax [5]: 612 ± 100 ng/mL
MRT [5]: 3.6 ± 1.8 min
clearance [5]: 36.6 mL/min/kg
half-life [5]: 18.6 ± 3.6 min
IC50 (A375 cells [6]): 0.0696 µg/mL (≈ 0.193 µM)
cell population of the S phase (A375 cells [7]; control 8.07 ± 0.39%): 17.73 ± 0.79%
cell population of the G0/G1 phase (A375 cells [7]; control 88.91 ± 0.81%): 72.87 ± 3.71%

CN(C)/N=N/c1[nH]cnc1C(N)=O [dacarbazine]
total effective rate (malignant melanoma): 10–15%
